Tests used:
[1] = test system: mushroom tyrosinase; experiment: Tyrosinase inhibitory activity (L-DOPA, DOPA chrome at 475 nm); type: biochemical; conditions: for tyrosinase inhibitory activity: Example 1, FIG. 1; for Inhibitory Activity (%): Example 2, Table 2
Procedure: In the reaction mixture, 0.5 ml of 0.175 M sodium phosphate buffer (pH 6.8), 0.2 ml of a substrate solution containing 10 mM L-DOPA, and 0.1 ml of the sample solution were mixed, followed by the addition of 0.2 ml of mushroom tyrosinase (110 unit/ml). The reaction was carried out for 2 minutes at 25° C., and the DOPA chrome produced in the reaction mixture was measured at 475 nm. Tyrosinase inhibitory activity was expressed as the percentage reduction in absorbance compared to the control group without sample solution.

[2] = test system: MNT-1 cells; experiment: Melanin production in MNT-1 cells (absorbance 490 nm); type: cell-based, human; conditions: MNT-1, 72 hours
Procedure: The melanin inhibitory effects of each substance were confirmed through an analysis of melanin production following treatment with procyanidin A2, quercetin, and their combination. Specifically, MNT-1 cells (human-derived melanoma skin cells) were treated for 72 hours with procyanidin A2, quercetin, and the combination at the maximum concentration without cytotoxicity according to Table 5. The negative control group was untreated, and arbutin, a tyrosinase inhibitor, was used as the positive control. Afterward, the media was removed, the cell bodies were dissolved with 1 N NaOH, heated at 95° C. for 5 minutes, and the absorbance was measured at 490 nm using a microplate reader (Molecular Devices, Sunnyvale, CA, USA).

[3] = test system: tyrosinase, TRP-1, TRP-2, MITF in MNT-1 cells; experiment: Melanin synthesis-related protein expression (western blot); type: cell-based, human; conditions: MNT-1, FIG. 5
Procedure: (§1) Specifically, after treating with procyanidin A2, quercetin, and the combination, MNT-1 cells were washed twice in ice-cold PBS and lysed in ice-cold RIPA buffer (Sigma-Aldrich). Protein concentration was measured using a Bicinchoninic acid (BCA) protein assay kit (Pierce, Rockford, IL, USA), and 35 μg of protein was separated using sodium dodecyl sulfate-polyacrylamide gel electrophoresis (10%) and transferred to a nitrocellulose membrane (Whatman, Dassel, Germany). The membrane was blocked in 5% non-fat milk in TBST buffer (1:5000) and then treated with primary (1:1000) and secondary antibodies (Table 6). Protein bands were detected using SuperSignal West Femto maximum sensitivity substrate (Thermo Fisher Scientific, Rockford, IL, USA) and quantified using Image Lab™ software (version 5.2.1).

[4] = test system: LC3-II, ATG5, Beclin-1, p62, LC3-I in MNT-1 cells; experiment: Autophagy activity-related protein expression (western blot); type: cell-based, human; conditions: for expression levels of LC3-II, ATG5, and Beclin-1: MNT-1, FIG. 6
Procedure: as §1
LC3-II, ATG5, and Beclin-1 are involved in the formation of autophagosomes and activate autophagy. In contrast, p62 and LC3-I, which show characteristics of being decomposed during autophagosome formation, decrease when autophagy activate. To verify the autophagy activity of procyanidin A2, quercetin, and their combination, the expression levels of autophagy-activity-related proteins were analyzed. The specific method for this experiment, except for using Table 8 for antibodies, was conducted in the same manner as the method in Example 5 for the analysis of melanin synthesis-related protein expression.

[5] = test system: MNT-1 cells; experiment: Cell viability / cytotoxicity, MTT assay; type: cell-based, human; conditions: MNT-1, 72 hours
Procedure: To examine the cell toxicity of procyanidin A2, quercetin, and their combination, a cell viability analysis was conducted. Specifically, cell survival and cytotoxicity were measured using the 3-(4,5-dimethylthiazol-2-yl)-2,5-diphenyltetrazoliumbromide (MTT) Assay. MNT-1 cells were seeded in a 96 well plate at 1×10^5 cells/well and cultured for 24 hours in a 37° C., 5% CO2 incubator. After that, each compound was treated according to Table 4 and cultured for 72 hours. Then, MTT solution at a final concentration of 0.5 mg/ml was added and reacted for 4 hours at 37° C. The media containing MTT solution was removed, and 100 μl of DMSO was treated in each well to dissolve the formazan precipitate formed in reaction with the living cells. Absorbance was measured at 550 nm using an ELISA reader (CLARIOstar Plus, BMG LABTECH, Germany).

[6] = procyanidin A2 only, 50 μM, MNT-1

| tyrosinase inhibition ([1]; 300 μM, positive control, Example 1) [%] | tyrosinase inhibitory activity ([1]; 2.5 μM) [%] | Inhibitory Activity (%) ([1]; 2.5 μM) | tyrosinase inhibitory activity ([1]; 5 μM) [%] | Inhibitory Activity (%) ([1]; 5 μM) | tyrosinase inhibitory activity ([1]; 10 μM) [%] | SMILES | melanin production reduced by (NT set to 100%) ([2]; arbutin 1 mM) | protein expression of tyrosinase, TRP-1, and TRP-2 ([3]; 50 μM) | expression levels of LC3-II, ATG5, and Beclin-1 ([4]; 50 μM) | ATG5 and Beclin-1 expression [4, 6] | P62 expression [4, 6] | ratio of LC3-II to LC3-I [4, 6] | cytotoxicity ([5]; 100 μM) | cytotoxicity ([5]; concentrations below 50 μM) | melanin production reduced to (NT set to 100%) ([2]; 50 μM) [%] | protein expression of tyrosinase, TRP-1, and TRP-2 ([3]; 20 μM) | expression levels of LC3-II, ATG5, and Beclin-1 ([4]; 20 μM) | cytotoxicity ([5]; approximately 25 μM and below) | melanin production reduced to (NT set to 100%) ([2]; 20 μM) [%] |
| --- | --- | --- | --- | --- | --- | --- | --- | --- | --- | --- | --- | --- | --- | --- | --- | --- | --- | --- | --- |
| 58.79 | – | – | – | – | – | OC[C@H]1O[C@@H](Oc2ccc(O)cc2)[C@H](O)[C@@H](O)[C@@H]1O [arbutin, reference compound] | about 57.1% | – | – | – | – | – | – | – | – | – | – | – | – |
| – | 29.82 | 30.27 | 51.12 | 49.04 | 68.81 | Oc1cc(O)c2c(c1)O[C@@]1(c3ccc(O)c(O)c3)Oc3cc(O)c4c(c3[C@@H]2[C@H]1O)O[C@H](c1ccc(O)c(O)c1)[C@H](O)C4 [procyanidin A2] | – | reduction | little to no significant change or only slight increases | slight increase | slight increase | remained similar to the control group | toxicity | no cytotoxicity | 72.3 | – | – | – | – |
| – | 17.65 | 17.05 | 32.08 | 31.61 | 49.44 | O=c1c(O)c(-c2ccc(O)c(O)c2)oc2cc(O)cc(O)c12 [quercetin, 2-(3,4-dihydroxyphenyl)-3,5,7-trihydroxy-4H-chromen-4-one] | – | – | – | – | – | – | – | – | – | reduction | little to no significant change or only slight increases | no cytotoxicity | 64.5 |
